Results reported in US12121510B2 (Cedars-Sinai Medical Center, priority 2016, dated 2024).
Read-outs that look alike come from different tables or passages of the source.

Experiments:
[1] = test system: A549 or A549/DDP cells; assay: CIS IC50 with constant DZ-SIM ester or amide, Crystal Violet assay; assay type: cell-based, human; details: 72 h; for Sensitization of cancer cells to CIS: combination with CIS
Experimental: Cell proliferation is determined by a Crystal Violet assay. The data represent the mean+/−SEM for two assays done in quadruplicate.

[2] = test system: Ramos, a B-cell lymphoma, cultured as 3-D spheroids; assay: Cell viability IC50 in 3-D spheroids; assay type: cell-based, human; details: for IC50: Homo sapiens, Ramos 3-D spheroids, single agent
Description: (§1) Exemplary Embodiments are generally performed as follows, unless otherwise noted. Simvastatin is purchased from Ark Pharm, Inc. (Arlington Heights, IL). Cisplatin (CIS) is purchased from MedKoo Biosciences, Inc. (Chapel Hill, NC). Dihydroartemisinin is purchased from TCI America (Portland, OR). All other chemicals and reagents are purchased from standard sources such as Sigma-Aldrich and/or VWR and are of highest quality available. Puromycin dihydrochloride was purchased from Alfa Aesar (Tewksbury, MA). Deionized water ([…]) used for making solutions is obtained from Milli-Q Direct Ultrapure Water System from Millipore (Billerica, MA, USA). All intermediates are characterized by 1H NMR and mass analysis and the purity of compounds are analyzed by HPLC. 1H NMR data are collected on Bruker 400 MHz spectrometers using standard parameters; chemical shifts are reported in ppm (δ) in reference to residual non-deuterated solvent. ESI mass spectroscopy analysis is performed using a Thermo Fisher LTQ Orbitrap Elite system. IC50 is the half maximal inhibitory concentration and determined is determined by crystal violet assay unless otherwise noted.
Cancer cells were Ramos, a B-cell lymphoma, cultured as 3-D spheroids, cultured according to their standard culturing conditions.

[3] = test system: NKPC-961; assay: Sensitization of pancreatic cancer cells to CIS and GEM; assay type: cell-based, mouse
Description: GEM (or PAC) alone are compared to a combination with SIM, or a combination with DZ-SIM.

[4] = test system: MCF-7; assay: Cancer cell growth IC50 (crystal violet); assay type: cell-based
Description: as §1
(§2) The crystal violet assay is performed as follows, unless otherwise noted. Cell lines are supplemented with RPMI 1640 medium, 10% fetal bovine serum, 1% PenStrep, and placed in a humidified atmosphere containing 5% CO2 at 37° C. 5,000 cells/well renal cancer cells and 10,000 cells/well lymphoma cells are seeded in 96 well plates in 100 microliter medium/per well for 24 h. […] Renal cancer cells are fixed with 3.7% paraformaldehyde for 15 minutes and are stained with Crystal violet solution (0.5% in 25% methanol) for 30 minutes. After rinsing with water cell layers are dried and decolorized with Sorenson citrate with shaking for 20 minutes. Light absorption of the extracted supernatant is read at 595 nm. Lymphoma cell growth was evaluated using MTT and cells are incubated for 4 hours. 100 microliters of isopropanol is added, and the extracted supernatant fraction is read at absorption maximum of 595 nm.
(§3) Standard cell culture conditions typically are RPMI 1640 medium, 10% fetal bovine serum, 1% PenStrep, and are performed in a humidified atmosphere containing 5% CO2 at 37° C. Generally, 5,000 cells/well-10,000 cells/well are seeded in 96 well plates in 100 microliter medium/per well for 24 h, or as described in Example 16, unless otherwise noted. Certain cells require specialized media, growth factors, antibiotics, or culture condition adjustments, as will be apparent to a person of ordinary skill in the art.

[5] = test system: C4-2B; assay: Cancer cell growth IC50 (crystal violet); assay type: cell-based
Description: as §1, §2, §3

[6] = test system: U87; assay: Cancer cell growth IC50 (crystal violet); assay type: cell-based; details: Example 13, 72 h
Description: as §1, §2, §3

[7] = test system: PC3M; assay: Cancer cell growth IC50 (crystal violet); assay type: cell-based; details: Example 13, 72 h
Description: as §1, §2, §3

[8] = test system: C4-2; assay: Cancer cell growth IC50 (crystal violet); assay type: cell-based; details: Example 13, C42, 72 h
Description: as §1, §2, §3

[9] = test system: LNCaP; assay: Cancer cell growth IC50 (crystal violet); assay type: cell-based; details: Example 13, 72 h
Description: as §1, §2, §3

[10] = test system: ARCaP-E; assay: Cancer cell growth IC50 (crystal violet); assay type: cell-based; details: Example 13, 72 h
Description: as §1, §2, §3

[11] = test system: PC3; assay: Cancer cell growth IC50 (crystal violet); assay type: cell-based
Description: as §1, §2, §3

[12] = test system: Ramos; assay: Lymphoma cell growth IC50 (MTT); assay type: cell-based, human; details: Example 13, 72 h, read-out: IC50
Description: as §1, §2, §3
as §2, with “Cell” for “The crystal violet assay is performed as follows, unless otherwise noted. Cell”, “cultured as follows. […]” for “supplemented with RPMI 1640 medium, 10% fetal bovine serum, 1% PenStrep, and placed in a humidified atmosphere containing 5% CO2 at 37° C.”, “is” for “was”

[13] = test system: Raji; assay: Lymphoma cell growth IC50 (MTT); assay type: cell-based, human; details: Example 13, 72 h, read-out: IC50
Description: as §1, §2, §3
as §2, with “Cell” for “The crystal violet assay is performed as follows, unless otherwise noted. Cell”, “cultured as follows. […]” for “supplemented with RPMI 1640 medium, 10% fetal bovine serum, 1% PenStrep, and placed in a humidified atmosphere containing 5% CO2 at 37° C.”, “is” for “was”

[14] = test system: Daudi; assay: Lymphoma cell growth IC50 (MTT); assay type: cell-based, human; details: Example 13, 72 h, read-out: IC50
Description: as §1, §2, §3
as §2, with “Cell” for “The crystal violet assay is performed as follows, unless otherwise noted. Cell”, “cultured as follows. […]” for “supplemented with RPMI 1640 medium, 10% fetal bovine serum, 1% PenStrep, and placed in a humidified atmosphere containing 5% CO2 at 37° C.”, “is” for “was”

[15] = test system: Namalwa; assay: Lymphoma cell growth IC50 (MTT); assay type: cell-based, human
Description: as §1, §2, §3
as §2, with “Cell” for “The crystal violet assay is performed as follows, unless otherwise noted. Cell”, “cultured as follows. […]” for “supplemented with RPMI 1640 medium, 10% fetal bovine serum, 1% PenStrep, and placed in a humidified atmosphere containing 5% CO2 at 37° C.”, “is” for “was”

[16] = test system: 22Rv1 tumors; assay: Prostate tumor xenograft growth; assay type: in vivo, mice; details: IP twice per week, 37 days; SIM 1.1 mg/kg, DZ-SIM 5.5 mg/kg, DT 8 mg/kg
Experimental: A human prostate tumor xenograft model, 22Rv1 in immune compromised mice, is employed as follows. 1×10^6 freshly harvested cells of a cultured human prostate carcinoma cell line, 22Rv1, are inoculated s.q. in mice. Mice bearing 22Rv1 tumors (10 tumors/group) are randomized into 7 groups on day-1, and administered drugs by IP (intraperitoneally) at the next day (day-2), and subsequently twice per week, using the following drugs and dosages: a control/vehicle (V, i.e. no drug), DZ (5 μM or 3.9 mg/kg, calculated based on the body weight of mice which averaged 20 grams), SIM (5 μM or 1.1 mg/kg), DZ-SIM (5 μM or 5.5 mg/kg), docetaxel (DT, 8 mg/kg), SIM+DT (drug doses as indicated), and DZ-SIM+DT (drug doses as indicated). Administration is continued for a total of 37 days, and tumor volumes are measured at the indicated times (see FIG. 4). […] Thus therapeutically resistant prostate tumors can be rendered sensitive by DZ-SIM but not SIM.

[17] = test system: 22Rv1; assay: Cancer cell growth IC50 (crystal violet); assay type: cell-based, human; details: Example 13, 72 h
Description: as §1
(§4) The crystal violet assay is performed as follows, unless otherwise noted. Cell lines are supplemented with RPMI 1640 medium, 10% fetal bovine serum, 1% PenStrep, and placed in a humidified atmosphere containing 5% CO2 at 37° C. 5,000 cells/well renal cancer cells and 10,000 cells/well lymphoma cells are seeded in 96 well plates in 100 microliter medium/per well for 24 h. […] Renal cancer cells are fixed with 3.7% paraformaldehyde for 15 minutes and are stained with Crystal violet solution (0.5% in 25% methanol) for 30 minutes. After rinsing with water cell layers are dried and decolorized with Sorenson citrate with shaking for 20 minutes. Light absorption of the extracted supernatant is read at 595 nm. Lymphoma cell growth was evaluated using MTT and cells are incubated for 4 hours. 100 microliters of isopropanol is added, and the extracted supernatant fraction is read at absorption maximum of 595 nm. […]

[18] = test system: MIAPaCa II; assay: Cancer cell growth IC50 / sensitization (crystal violet); assay type: cell-based
Description: as §1, §4

[19] = test system: CTC 752-S-1; assay: Circulating tumor cell growth IC50 / sensitization; assay type: cell-based, human; details: for IC50: Homo sapiens, Example 23, CTC 752-S-1
Description: as §1, §3
Pancreatic cancer cells are cultured for 72 hours in vitro and exposed to the conventional chemotherapeutic drugs Gemcitabine (GEM) and Paclitaxel (PAC), known to inhibit pancreatic cancer growth in patients. GEM (or PAC) alone are compared to a combination with SIM, or a combination with DZ-SIM. […] Representative results are illustrated in the graphs in FIG. 3.
Cells are cultured according to their standard culturing conditions, and IC50s are determined as described herein-above.
Representative results of the determined IC50s are shown in the table below for the indicated cancer cells cultured in vitro, including CTCs (C752-S-1), B-Cell Lymphoma (Namalwa), prostate cancer cells (C4-2B), and renal cancer cells (Caki-1). The cells are cultured according to their standard culturing conditions, and IC50s are determined as described herein-above.

[20] = test system: Caki-1; assay: Renal cancer cell growth IC50 (crystal violet); assay type: cell-based, human; details: Homo sapiens; Example 23; Caki-1; read-out: IC50
Description: as §1, §2, §3
as §2, with “Cell” for “The crystal violet assay is performed as follows, unless otherwise noted. Cell”, “cultured as follows. […]” for “supplemented with RPMI 1640 medium, 10% fetal bovine serum, 1% PenStrep, and placed in a humidified atmosphere containing 5% CO2 at 37° C.”, “is” for “was”

[21] = Homo sapiens, Example 23, read-out: IC50

## CCC(C)(C)C(=O)O[C@H]1C[C@@H](C)C=C2C=C[C@H](C)[C@H](CC[C@@H](O)C[C@@H](O)CC(=O)CCCCNC(=O)CCCCCN3/C(=C/C=C4\CCCC(/C=C/C5=[N+](CCCCS(=O)(=O)[O-])c6ccccc6C5(C)C)=C4Cl)C(C)(C)c4ccccc43)[C@H]21 [DZ-SIM amide]
[1]
  Sensitization of cancer cells to CIS: sensitize cancer cells to CIS

## CCC(C)(C)C(=O)O[C@H]1C[C@@H](C)C=C2C=C[C@H](C)[C@H](CC[C@@H]3C[C@@H](OC(=O)CCCCCN4/C(=C/C=C5\CCCC(/C=C/C6=[N+](CCCCS(=O)(=O)[O-])c7ccccc7C6(C)C)=C5Cl)C(C)(C)c5ccccc54)CC(=O)O3)[C@H]21 [DZ-SIM ester]
[2]; 72 h
  IC50: 2.74 µM
[2]; Ramos, 2 μM DZ-SIM ester
  Increase of CIS cytotoxicity: over 190 fold
[2]; Ramos, 72 h
  Potency relative to SIM: 5 fold
[1]
  Reduction of the IC50 of CIS by combination: up to 200 fold
  Sensitization of cancer cells to CIS: sensitize cancer cells to CIS
[3]
  Sensitization to CIS and GEM: about equally sensitize
[4]; Example 13, 72 h
  IC50: 9.9 µM
[5]; Example 13, 72 h
  IC50: 1.81 µM
[6]
  IC50: 1.32 µM
[7]
  IC50: 5.19 µM
[8]
  IC50: 4.26 µM
[9]
  IC50: 1.79 µM
[10]
  IC50: 4.76 µM
[11]; Example 13, 72 h
  IC50: 7.15 µM
[12]
  IC50: 2.74 µM
[13]
  IC50: 8.8 µM
[14]
  IC50: 5.61 µM
[15]; Example 13, 72 h, read-out: IC50
  IC50: 7.15 µM
[16]
  Growth of 22Rv1 tumors in vivo (tumor volume): inhibited the growth of tumors in vivo
[17]
  IC50: 4.9 µM
[18]; Example 13, 72 h
  IC50: 2.12 µM
[19]; CTC-752-S-1 human pancreatic cancer cells, 72 hours
  Sensitization to GEM or PAC: more effective sensitizer to GEM or PAC than SIM

## COc1cccc2c1C(=O)c1c(O)c3c(c(O)c1C2=O)C[C@@](O)(C(=O)CO)C[C@@H]3O[C@H]1C[C@H](N)[C@H](O)[C@H](C)O1 [Doxorubicin]
[5]; Example 23
  IC50: 0.0431 µM
[15]; [21]
  IC50: 0.666 µM
[20]
  IC50: 0.88 µM
[19]
  IC50: 1.82 µM

## COc1ccc(C[C@H](N)C(=O)N[C@H]2[C@@H](O)[C@H](n3cnc4c(N(C)C)ncnc43)O[C@@H]2CO)cc1 [Puromycin]
[5]; Example 23
  IC50: 0.249 µM
[15]; [21]
  IC50: 0.969 µM
[20]
  IC50: 0.74 µM
[19]
  IC50: 4.87 µM

## CCC(C)(C)C(=O)O[C@H]1C[C@@H](C)C=C2C=C[C@H](C)[C@H](CC[C@@H]3C[C@@H](O)CC(=O)O3)[C@H]21 [SIM, Simvastatin]
[2]; 72 h
  IC50: 13 µM
[4]; Homo sapiens, MCF7, Example 13, 72 h
  IC50: 2.69 µM
[5]; Example 13, 72 h
  IC50: 1.88 µM
[6]; Homo sapiens, U-87 MG
  IC50: 0.506 µM
[7]; Homo sapiens, PC-3M
  IC50: 0.248 µM
[8]; C4-2
  IC50: 7.73 µM
[9]; Homo sapiens
  IC50: 3.76 µM
[10]
  IC50: 5.61 µM
[11]; Homo sapiens, PC-3, Example 13, 72 h
  IC50: 0.991 µM
[12]; Homo sapiens
  IC50: 13 µM
[13]; Homo sapiens
  IC50: 32.5 µM
[14]; Homo sapiens
  IC50: 15 µM
[15]; Homo sapiens, Example 13, 72 h, read-out: IC50
  IC50: 13.4 µM
[17]; Homo sapiens
  IC50: 3.52 µM
[18]; MIA PaCa-2, Example 13, 72 h
  IC50: 0.592 µM
